Common to all, as to format: biochemical
One assay deals with T1, Btk (Homo sapiens, UniProt Q06187).
T1 construct: purified from insect cells as a full-length construct containing a N-terminal 6X-His tag; His6 (N); made in house; host or cells: insect cells (Method C)
The experiment in a line: Btk in vitro inhibitory activity (one of Method A TR-FRET, Method B electrophoretic mobility shift, Method C radiometric filter binding). The method, boiled down:
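Method A: TR-FRET with 0.5 nM Btk at [ATP]=Km, EDTA-quenched, 665/615 nm ratio; Ki(app) converted to IC50. Method B: 1 nM full-length His6 human BTK, 1 μM FAM peptide, pH 7.5, mobility-shift product/sum ratio, 12-point 4-parameter fit. Method C: radiometric filter binding, 8 nM His-tagged BTK, 0.2 mg/mL poly-Glu-Tyr.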
In general terms: Mobility shift assays separate free from complexed probe on a gel.

A further assay has as its target T2, panel of kinases (Homo sapiens, UniProt P51813).
T2 sequence (P51813 1-675): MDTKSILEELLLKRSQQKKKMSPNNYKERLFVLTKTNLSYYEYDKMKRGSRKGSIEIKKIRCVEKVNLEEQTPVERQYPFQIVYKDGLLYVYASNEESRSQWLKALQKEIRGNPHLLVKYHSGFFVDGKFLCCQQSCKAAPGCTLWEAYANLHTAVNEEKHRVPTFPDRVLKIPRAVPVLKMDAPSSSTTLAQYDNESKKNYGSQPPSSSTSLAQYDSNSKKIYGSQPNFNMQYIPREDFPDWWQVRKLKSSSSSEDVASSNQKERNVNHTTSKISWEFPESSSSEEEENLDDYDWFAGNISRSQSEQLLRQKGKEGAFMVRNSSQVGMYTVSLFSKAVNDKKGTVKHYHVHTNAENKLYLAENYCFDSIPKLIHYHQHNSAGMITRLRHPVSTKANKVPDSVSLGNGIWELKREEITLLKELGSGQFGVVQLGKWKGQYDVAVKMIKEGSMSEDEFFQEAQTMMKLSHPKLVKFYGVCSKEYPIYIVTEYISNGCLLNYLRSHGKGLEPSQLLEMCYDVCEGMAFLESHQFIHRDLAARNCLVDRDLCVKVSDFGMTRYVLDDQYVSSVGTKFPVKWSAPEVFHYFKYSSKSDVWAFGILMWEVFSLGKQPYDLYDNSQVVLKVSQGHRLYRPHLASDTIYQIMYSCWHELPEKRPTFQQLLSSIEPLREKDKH
The experiment in a line: Inhibition of a panel of kinases (in vitro HotSpot kinase assay, 33P-ATP, 1 μM ATP), other kinases. The settings on record: BMX wild-type, read-out: BMX-WT IC50. The method in brief:
(§1)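 Degree of kinase inhibition is determined in vitro using isolated enzymes, a matched substrate and radiolabelled ATP (1 μM).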

In another assay the target is T3, TEC (Homo sapiens, UniProt P42680).
T3 sequence (P42680 1-631): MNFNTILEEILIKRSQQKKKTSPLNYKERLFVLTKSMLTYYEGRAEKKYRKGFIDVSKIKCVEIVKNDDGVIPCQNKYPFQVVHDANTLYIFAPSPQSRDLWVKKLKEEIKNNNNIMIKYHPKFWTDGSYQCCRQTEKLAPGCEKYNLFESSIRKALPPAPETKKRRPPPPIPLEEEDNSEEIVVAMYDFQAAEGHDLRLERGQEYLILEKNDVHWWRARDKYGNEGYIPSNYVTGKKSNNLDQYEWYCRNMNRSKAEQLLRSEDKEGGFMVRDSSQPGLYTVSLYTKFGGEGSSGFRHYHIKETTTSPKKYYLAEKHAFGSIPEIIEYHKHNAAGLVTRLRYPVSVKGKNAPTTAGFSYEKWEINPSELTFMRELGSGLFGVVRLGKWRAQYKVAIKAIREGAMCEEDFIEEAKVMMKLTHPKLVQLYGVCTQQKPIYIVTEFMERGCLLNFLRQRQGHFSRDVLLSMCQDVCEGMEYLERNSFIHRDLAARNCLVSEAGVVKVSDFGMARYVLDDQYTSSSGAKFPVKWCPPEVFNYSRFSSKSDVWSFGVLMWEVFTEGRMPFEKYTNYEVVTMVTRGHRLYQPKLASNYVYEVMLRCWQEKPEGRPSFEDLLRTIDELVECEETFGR
The experiment in a line: Inhibition of a panel of kinases (in vitro HotSpot kinase assay, 33P-ATP, 1 μM ATP). To be noted: for IC50: HotSpot kinase assay, 1 μM ATP; for TEC/Btk: ratio of TEC IC50 to Btk IC50 (selectivity). The method in brief: as §1

[1] abbreviates: wild-type Btk, read-out: Btk-WT IC50.
Setting [2] is: method is one of A, B or C, not stated which, read-out: IC50 values against Btk.

Where two headings read alike, the source gives them in different places.

T1 sequence (Q06187 whole entry): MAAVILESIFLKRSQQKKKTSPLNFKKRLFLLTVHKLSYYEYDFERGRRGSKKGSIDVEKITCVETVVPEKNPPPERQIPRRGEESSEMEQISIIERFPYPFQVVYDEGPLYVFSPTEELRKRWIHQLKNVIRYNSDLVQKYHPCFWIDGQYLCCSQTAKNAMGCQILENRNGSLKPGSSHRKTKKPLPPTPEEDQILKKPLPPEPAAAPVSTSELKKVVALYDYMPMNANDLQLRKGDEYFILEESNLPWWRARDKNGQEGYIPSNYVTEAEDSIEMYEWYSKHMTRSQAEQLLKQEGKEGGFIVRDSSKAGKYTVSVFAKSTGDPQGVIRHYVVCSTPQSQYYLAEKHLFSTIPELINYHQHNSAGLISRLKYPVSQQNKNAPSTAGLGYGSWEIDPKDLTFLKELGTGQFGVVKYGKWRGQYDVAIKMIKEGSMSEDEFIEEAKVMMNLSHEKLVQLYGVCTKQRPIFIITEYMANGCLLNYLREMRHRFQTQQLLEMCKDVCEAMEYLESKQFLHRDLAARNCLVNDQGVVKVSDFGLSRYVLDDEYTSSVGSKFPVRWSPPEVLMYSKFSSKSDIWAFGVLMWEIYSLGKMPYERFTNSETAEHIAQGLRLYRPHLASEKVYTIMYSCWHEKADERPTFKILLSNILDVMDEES

Broadly, the IC50 is the concentration needed to halve the response being measured. Take `C=CC(=O)N[C@@H]1CCN(c2n[nH]c3nccc(-c4ccc(CNC(=O)c5ccc(C(C)(C)O)cc5)c(F)c4)c23)C1` [Example 325, N-{[2-fluoro-4-(3-{(3R)-3-[(prop-2-enoyl)amino]pyrrolidin-1-yl}-1H-pyrazolo[3,4-b]pyridin-4-yl)phenyl]methyl}-4-(2-hydroxypropan-2-yl)benzamide]: the IC50 worked out at 0.163 nM at Btk (setting [1]), 87.1 nM on panel of kinases and 31.3 nM against TEC.
For `C=CC(=O)N1CC[C@@H](Nc2n[nH]c3nccc(-c4cccc(NC(=O)c5noc(C(C)(C)C)n5)c4)c23)C1` [Example 265, 5-tert-butyl-N-[3-(3-{[(3R)-1-(prop-2-enoyl)pyrrolidin-3-yl]amino}-1H-pyrazolo[3,4-b]pyridin-4-yl)phenyl]-1,2,4-oxadiazole-3-carboxamide], the IC50 was 200 nM on Btk (setting [1]), 875 nM on panel of kinases and 2780 nM against TEC. Moreover, at TEC, the TEC/Btk is 014.
Regarding `CC(C)(C)c1noc(C(=O)NCc2ccc(-c3ccnc4[nH]nc(N5CC[C@H](N)C5)c34)cc2F)n1` [Example 159, N-[(4-{3-[(3S)-3-aminopyrrolidin-1-yl]-1H-pyrazolo[3,4-b]pyridin-4-yl}-2-fluorophenyl)methyl]-3-tert-butyl-1,2,4-oxadiazole-5-carboxamide], the IC50 was < 10 nM on Btk (setting [2]), 1.45 nM at Btk (setting [1]), 1820 nM at panel of kinases and 591 nM against TEC. For the same compound, on TEC, the TEC/Btk worked out at 408.
On to `C[C@@H](NC(=O)c1nc(C(C)(C)C)no1)c1ccc(-c2ccnc3[nH]nc(C4CCN(C(=O)N(C)C)CC4)c23)cc1` [Example 244, 4-[4-(4-{(1R)-1-[(3-tert-butyl-1,2,4-oxadiazole-5-carbonyl)amino]ethyl}phenyl)-1H-pyrazolo[3,4-b]pyridin-3-yl]-N,N-dimethylpiperidine-1-carboxamide], for which the IC50 was determined as 1.63 nM at Btk (setting [1]), 5870 nM on panel of kinases and 9550 nM against TEC. Also, the TEC/Btk on TEC turned out to be 5859.
For the compound `CC(=O)N1CCC(Nc2n[nH]c3nccc(-c4ccc([C@@H](C)NC(=O)c5cc(C(C)(C)O)on5)cc4)c23)CC1` [Example 204, N-[(1R)-1-(4-{3-[(1-acetylpiperidin-4-yl)amino]-1H-pyrazolo[3,4-b]pyridin-4-yl}phenyl)ethyl]-5-(2-hydroxypropan-2-yl)-1,2-oxazole-3-carboxamide], the figures for the IC50 at Btk (setting [1]), at panel of kinases and against TEC were > 1000 nM, > 10000 nM and > 10000 nM, respectively. Also, on TEC, the TEC/Btk is >10000.
As to `CC(=O)N1CC[C@H](Oc2n[nH]c3nccc(-c4ccc(CNC(=O)c5nc(C(C)(C)C)no5)c(F)c4)c23)C1` [Example 284, (S)-N-[(4-{3-[(1-acetylpyrrolidin-3-yl)oxy]-1H-pyrazolo[3,4-b]pyridin-4-yl}-2-fluorophenyl)methyl]-3-tert-butyl-1,2,4-oxadiazole-5-carboxamide], the IC50 on Btk (setting [1]) is 3.19 nM; at panel of kinases, 2920 nM; against TEC, 2250 nM.
For `C=CC(=O)N1CC[C@@H](Nc2n[nH]c3nccc(-c4ccnc(N5CCn6c(cc7c6CC(C)(C)C7)C5=O)c4CO)c23)C1` [Example 298, 2-[3-(hydroxymethyl)-4-(3-{[(3R)-1-(prop-2-enoyl)pyrrolidin-3-yl]amino}-1H-pyrazolo[3,4-b]pyridin-4-yl)pyridin-2-yl]-7,7-dimethyl-3,4,7,8-tetrahydro-2H-cyclopenta[4,5]pyrrolo[1,2-a]pyrazin-1(6H)-one], the 50% inhibitory concentration (IC50) was found to be 1.51 nM at Btk (setting [1]), 8030 nM on panel of kinases and 3280 nM at TEC.
`O=c1c2c(F)cc(C3CC3)cc2ccn1-c1cccc(-c2ccnc3[nH]nc(N[C@@H]4CCNC4)c23)c1CO` [Compound 17, (R)-6-cyclopropyl-8-fluoro-2-(2-(hydroxymethyl)-3-(3-(pyrrolidin-3-ylamino)-1H-pyrazolo[3,4-b]pyridin-4-yl)phenyl)isoquinolin-1 (2H)-one]: the IC50 at Btk (setting [1]) turned out to be 312 nM; on panel of kinases it was 6410 nM; on TEC, 5920 nM. Besides, the TEC/Btk on TEC is reported as 19.
`C=CC(=O)N[C@@H]1CCN(c2n[nH]c3nccc(-c4ccc(CNC(=O)c5ccc(C(C)(C)C)cc5)c(F)c4)c23)C1` [Example 101, 4-tert-butyl-N-[(2-fluoro-4-{3-[(3R)-3-(prop-2-enamido)pyrrolidin-1-yl]-1H-pyrazolo[3,4-b]pyridin-4-yl}phenyl)methyl]benzamide]: the IC50 at Btk (setting [2]) was < 10 nM; on Btk (setting [1]) it was 0.22 nM; on panel of kinases, 122 nM; against TEC, 96 nM. In addition, the TEC/Btk on TEC was 434.
Consider `C=CC(=O)N1CC[C@@H](Nc2n[nH]c3nccc(-c4ccc(CNC(=O)c5ccc6scnc6c5)c(F)c4)c23)C1` [Example 362, N-{[2-fluoro-4-(3-{[(3R)-1-(prop-2-enoyl)pyrrolidin-3-yl]amino}-1H-pyrazolo[3,4-b]pyridin-4-yl)phenyl]methyl}-1,3-benzothiazole-5-carboxamide], for which the IC50 came out at 0.727 nM at Btk (setting [1]), 19 nM on panel of kinases and 73.3 nM against TEC.
As to `C[C@@H](NC(=O)c1nc(C(C)(C)C)no1)c1ccc(-c2ccnc3[nH]nc(C4=CCCN(C(=O)N(C)C)C4)c23)cc1` [Example 243, 5-[4-(4-{(1R)-1-[(3-tert-butyl-1,2,4-oxadiazole-5-carbonyl)amino]ethyl}phenyl)-1H-pyrazolo[3,4-b]pyridin-3-yl]-N,N-dimethyl-3,6-dihydropyridine-1(2H)-carboxamide], the values for the IC50 at Btk (setting [1]), at panel of kinases and at TEC were 4.39 nM, 4450 nM and 5880 nM, respectively. The TEC/Btk at TEC is 1339.
`C=CC(=O)N1CC[C@@H](Nc2n[nH]c3nccc(-c4ccc(CNC(=O)c5ccc6c(c5)OCCCO6)c(F)c4)c23)C1` [Example 351, (R)-N-{[2-fluoro-4-(3-{[1-(prop-2-enoyl)pyrrolidin-3-yl]amino}-1H-pyrazolo[3,4-b]pyridin-4-yl)phenyl]methyl}-3,4-dihydro-2H-1,5-benzodioxepine-7-carboxamide]: the IC50 on Btk (setting [1]) is 4.43 nM; at panel of kinases it was 95.7 nM; at TEC, 340 nM.
In the case of `CC(C)(C)c1ccc(C(=O)NCc2ccc(-c3ccnc4[nH]nc(N[C@H]5CC[C@H](O)CC5)c34)cc2)cc1` [Compound 23, 4-tert-butyl-N-{[4-(3-{[(1r,4r)-4-hydroxycyclohexyl]amino}-1H-pyrazolo[3,4-b]pyridin-4-yl)phenyl]methyl}benzamide], the IC50 at Btk (setting [1]), on panel of kinases and on TEC was > 10000 nM in each case.
Consider `C=CC(=O)N1CCC[C@@H](Nc2n[nH]c3nccc(-c4ccc(CNC(=O)c5cc(CC(C)C)on5)c(F)c4)c23)[C@H]1C` [Example 293, N-{[2-fluoro-4-(3-{[(2R,3R)-2-methyl-1-(prop-2-enoyl)piperidin-3-yl]amino}-1H-pyrazolo[3,4-b]pyridin-4-yl)phenyl]methyl}-5-(2-methylpropyl)-1,2-oxazole-3-carboxamide], for which the IC50 on Btk (setting [1]) worked out at 1.76 nM; at panel of kinases it was 46.1 nM; against TEC it was 59.4 nM.

Source of the values: US20180194762A1 (Pharmacyclics LLC, priority 2017, published 2018).
